Test results published in patent publication US12133900B2, “Synthesis and composition of amino acid linking groups conjugated to compounds used for the targeted imaging of tumors” (Purdue Research Foundation, priority 2013, dated 2024).
Entries after “also recorded” stand apart in the source; their conditions may differ.

Legend:
Assay type in all cases: in vivo, mice
[1] = tested on: FR-positive L1210A tumors; assay: Imaging and biodistribution, L1210A metastatic model (OTL38); conditions: 2 nmol, 2 h
Protocol: One million (1×106) of either L1210A or MDA-MB231 cancer cells per mouse (cancer cells/mouse) were administered via tail vein injection into the mice. Tumor growth was monitored every other day using a Caliper IVIS Lumina II Imaging Station with Living Image 4.0 software (PerkinElmer Inc.).
(§1) Following whole body imaging, animals were dissected and selected tissues (heart, lung, liver, spleen, kidneys, stomach, small intestine, large intestine, muscle, skin, and tumor) were analyzed for fluorescence activity using IVIS imager using same settings as in whole body imaging.

[2] = tested on: FR-positive SKOV3 orthotopic tumor; assay: Imaging and biodistribution, SKOV3 ovarian orthotopic model; conditions: 2 nmol, 2 h
Protocol: Ovarian cancer was developed through surgical implantation of ovarian cancer cell lines near the ovarian bursa of the mouse. Seven-week-old female athymic nude mice were given 1-5% isoflurane for anesthesia and subcutaneous injection of 5 mg/kg meloxicam preoperatively for analgesia. The mice were placed dorsal side up and washed above the right ovary (just lateral to the epaxial muscles and ˜1.15 cm caudal to the rib cage) with a chlorhexidine scrub to ensure a sterile area for incision. After an insertion was made using scalpel through the skin, the peritoneal lining was lifted to make a small incision using a scissor and widened using a forceps. The ovarian fat pad was carefully lifted out and placed on a wetted gauze pad adjacent to the incision. Ovarian cancer cells (50,000 cells in 5 μL) were injected between the bursa and the ovary using a 30 gage needle. After placing the ovarian fat pad back into the body cavity, the body wall was closed using 3-0 or 4-0 vicryl and the skin was closed using staples.
as §1

[3] = tested on: folate receptor positive KB tumor xenografts; assay: Whole body imaging and tissue biodistribution, KB tumor xenografts; conditions: for tumor uptake: 0.3 nmol dose i.v.; for non-specific uptake: 60 and 90 nmol doses i.v.
Protocol: (§2) Seven-week-old female nu/nu mice were inoculated subcutaneously with KB cells (1.0×10^6/mouse in folate free RPM11640 medium) on the shoulder. […] […] Whole body imaging (intact tumor) experiments were then performed using a Caliper IVIS Lumina II Imaging Station with Living Image 4.0 software (PerkinElmer Inc, MA). Settings for imaging:—lamp level: medium; excitation: 745 nm; emission: 830 nm; epi illumination; binning: 4 (M), FOV=12.5; f-stop=2; acquisition time=1 s.
Following whole body imaging, animals were dissected and selected tissues (heart, lung, liver, spleen, kidneys, stomach, small intestine, large intestine, muscle, skin, tumor) were analyzed for fluorescence activity using IVIS imager as before. Settings for imaging: lamp level: medium; excitation: 745 nm; emission: 830 nm; epi illumination; binning: 4 (M), FOV=12.5; f-stop=2; acquisition time=1 s.
as §2, with “shoulder. Growth of the tumors was measured in perpendicular directions every 2 days using a caliper (body weights were monitored on the same schedule), and the volumes of the tumors were calculated as 0.5×L×W^2 (L=longest axis and W=axis perpendicular to L in millimeters).” for “shoulder.”, “ICG (830 nm);” for “830 nm;”
Following whole body imaging, animals were dissected and selected tissues (heart, lung, liver, spleen, kidneys, stomach, small intestine, large intestine, muscle, skin, and tumor) were analyzed for fluorescence activity using IVIS imager as before. Settings for imaging:—lamp level: medium; excitation: 745 nm; emission:ICG (830 nm); epi illumination; binning: 4 (M), FOV=12.5; f-stop=2; acquisition time=1 s.
Five-week-old female nu/nu mice were inoculated subcutaneously with KB cells (1.0×10^6/mouse in RPMI medium) on their shoulders. Growth of the tumors was measured in two perpendicular directions every 2 days using a caliper (body weights were monitored on the same schedule), and the volumes of the tumors were calculated as 0.5×L×W^2 (L) longest axis and W) axis perpendicular to L in millimeters). Once tumors reached between 400 and 500 mm3 in volume, animals were treated with folate receptor-targeted NIR dye conjugate (10 nmol) in phosphate buffered saline (100 μL). […]
Animal imaging experiments were performed using a Caliper Ivis Lumina II Imaging Station with Living Image 4.0 software. Settings for imaging Alexa Fluor 647 and DyLight 680 conjugates: lamp level: high; excitation: 605; emission: Cy5.5; epi illumination; binning: (M) 4; FOV=7.5; f-stop=4; acquisition time=1 s. Settings for imaging DyLight 750 and IR800CW conjugates: lamp level: high; excitation: 745; emission: ICG; epi illumination; binning: (M) 4, FOV=12.5; f-stop=4; acquisition time=1 s.
Seven-week-old female nu/nu mice were inoculated subcutaneously with KB cells (1.0×10^6/mouse in folate free RPM11640 medium) on the shoulder. Growth of the tumors was measured in perpendicular directions every 2 days using a caliper (body weights were monitored on the same schedule), and the volumes of the tumors were calculated as 0.5×L×W^2 (L=longest axis and W=axis perpendicular to L in millimeters). Once tumors reached between 400 and 500 mm3 in volume, animals (5 mice/group) were intravenously injected with 10 nmol of OTL-0038 or OTL-0039 in phosphate buffered saline (100 μL). After 2.5 hours, animals were euthanized by CO2 asphyxiation. Whole body imaging (intact tumor) experiments were then performed using a Caliper IVIS Lumina II Imaging Station with Living Image 4.0 software (PerkinElmer Inc, MA). […]

[4] = 10 nmol i.v., 2 h, listed as OTL38
[5] = 10 nmol i.v., 2 h, listed as Pte-Tyr-S0456
[6] = 10 nmol tail vein, live imaging
[7] = dose escalation 0.3-90 nmol i.v.

CC1(C)C(/C=C/C2=C(Oc3ccc(C[C@H](NC(=O)c4ccc(NCc5cnc6nc(N)[nH]c(=O)c6n5)cc4)C(=O)[O-])cc3)C(=C/C=C3\N(CCCCS(=O)(=O)[O-])c4ccc(S(=O)(=O)[O-])cc4C3(C)C)/CCC2)=[N+](CCCCS(=O)(=O)[O-])c2ccc(S(=O)(=O)[O-])cc21.[H+].[H+].[H+].[H+] [OTL-0038, Pte-Tyr-S0456]
tumor-to-normal tissue ratios [1]: excellent tumor-to-normal tissue ratios
whole body imaging: accumulation [1]: accumulated mainly in the FR-positive L1210A tumors metastasize to the liver, lung and spleen
accumulation (tissue biodistribution) [2]: accumulated mainly in the ovary with FR-positive SKOV3 orthotopic tumor
tumor-to-normal tissue ratios [2]: excellent tumor-to-normal tissue ratios
tumor uptake [3]: lower uptake in folate receptor-positive tumors (weak fluorescence intensity)
tumor uptake ([3]; listed as OTL38): lower uptake in FR-positive tumors (weak fluorescence intensity)
whole body imaging, tissue biodistribution and tumor-to-tissue ([3]; 2 nmol dose, 2 h post injection): excellent
time in which nonspecific skin tissue uptake clears ([3]; 10 nmol): ≤ 24 h
tumor fluorescence intensity, direct comparison ([3]; 10 nmol i.v., 2 h): brighter than the mice treated with the other conjugates
tumor-to-tissue ratios ([3]; 10 nmol i.v., 2 h): excellent tumor-to-tissue ratios except the skin
whole body imaging: accumulation ([3]; 10 nmol i.v., 2 h): accumulated predominantly in the folate receptor-positive tumors
ex vivo tissue biodistribution [3, 4]: highest fluorescence intensity was observed in FR-positive tumors with no accumulation in the other tissues except the kidneys and skin
whole body imaging: accumulation [3, 4]: accumulated predominantly in the FR positive KB tumors
ex vivo tissue biodistribution [3, 5]: accumulated predominantly in the folate receptor positive tumors with no substantial fluorescence activity in other organs except the kidneys
tumor fluorescence intensity, direct comparison [3, 5]: competitive, in terms of fluorescent brightness, to all folate-NIR conjugates
whole body imaging: accumulation [3, 5]: mainly accumulated in the folate receptor positive tumors and no fluorescence was observed in other tissues
ex vivo tissue biodistribution ([3]; 10 nmol i.v., 2.5 h): highest fluorescence intensity was observed in FR-positive tumors with no accumulation in the other tissues except the kidneys; also recorded: mainly accumulated in folate receptor positive tumor xenografts and kidneys
tumor fluorescence intensity, direct comparison ([3]; 10 nmol i.v., 2.5 h): brighter (higher); also recorded: beneficial aspects relative to folate-LS288, folate-IR800, and folate-ZW800 in tumor accumulated fluorescence intensity
tumor-to-normal tissue fluorescence ratios ([3]; 10 nmol i.v., 2.5 h): excellent tumor-to-normal tissue fluorescence ratios
whole body imaging: accumulation ([3]; 10 nmol i.v., 2.5 h): accumulated predominantly in the folate receptor positive tumors
time point at which clearing from the skin starts [3, 6]: 2 h
time to saturate FR [3, 6]: 2 to 4 h
time to accumulate in FR positive tumor and kidneys ([3]; 10 nmol tail vein, live imaging 15 min to 48 h): ≤ 1 h
skin fluorescence ([3]; 10 nmol, 24-48 hour time points): minimal fluorescence
uptake in sliced (dissected) tumors ([3]; 10 nmol, 2 h): accumulated homogeneously in all tumor cells
fluorescence intensity in the skin ([3]; 10 nmol, 24 h post injection, ImageJ): minimal
fluorescence in tumor ([3]; 10 nmol, 48 hour time point): remains high
non-specific uptake [3]: higher non-specific uptake
non-specific uptake ([3]; listed as OTL38): higher non-specific uptake in healthy tissues
highest dose to obtain best tumor-to-background ratio [3, 7]: 30 nmol
lowest dose to obtain good tumor-to-background ratio [3, 7]: 1.0 nmol
kidney uptake ([3]; dose range 0.3-10 nmol): higher kidney uptake
tumor uptake and tumor-to-normal tissue ratio ([3]; dose range 1.0-30.0 nmol i.v.): tumor uptake and excellent tumor-to-normal tissue ratio
kidney uptake ([3]; dose range 30-90 nmol): less kidney uptake (relative to tumor uptake)
